Several values for one entry are separate records, joined by “and”; a condition that tells them apart may be missing. Equal entries are not always repeated.
Legend:
[1] = system: phospho-Tyr627 GAB1; test: Inhibition of GAB1 Y627 phosphorylation in T47D cells; assay type: cell-based, human; details: 20 µM, 4 hr, HGF stimulated
Description: For all biological assays, hit compounds were added at 20 µM concentration directly into the culture media of the cells for 4 hr following a 16 hr incubation of T47D cells without FBS. Cells were stimulated with HGF for 20 min at 50 ng/ml. Following this treatment, cells were lysed as previously published and equal amounts of total cell lysate were loaded on a pSer^312-IRS-1/Total IRS-1 Meso Scale Discovery plate as described by the manufacturer. The plate was read using a Sector Imager 2400A instrument (Meso Scale Discovery protein profiling system, Gaithersburg, MD). For the measurement of GAB1 phosphorylation, T47D cells were treated as for the phosphorylation of IRS1 evaluation. […] Each experiment was performed at least three times.

[2] = molecular target: T1, human GAB1 PH domain (Homo sapiens, UniProt Q13480); test: SPR direct binding to GAB1 PH domain; details: for Kd: read-out: KD GAB1; for Kd / KD GAB1: SPR, immobilized PH domain GST-fusion, NB = No Binding; for Exp. ΔGbind: GAB1, derived from experimental KD (or Ki)
T1 sequence (Q13480 5-116 limits assumed): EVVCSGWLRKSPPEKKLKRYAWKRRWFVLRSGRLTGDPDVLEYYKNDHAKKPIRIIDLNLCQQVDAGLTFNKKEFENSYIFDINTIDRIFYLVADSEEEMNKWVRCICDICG
Description: (§3) Binding assays were performed using a Biacore 2000 instrument with the Biacore Control Software v3.2 and BIAevaluation v4.1 analysis software (Biacore, Piscataway, NJ) as previously described [51]. Briefly, the PH domain GST-fusion proteins were immobilized on a CM5 Sensorchip (Biacore BR-1000-12) using Biacore's Amine Coupling Kit (Biacore BR-1000-50) to a level of 10,000 Response units (RUs). Small molecule analytes at concentrations ranging from one tenth to ten times the predicted K D were injected at a high flow rate (30 µL/min). Dimethylsulfoxide (DMSO) concentrations in all samples and running buffer were 1% (v/v) or less. For the competitive binding assays and K i determination, PtdIns(3,4,5)P3-biotin labeled liposomes (Echelon Biosciences, Salt Lake City, UT) and SA chips were used with increasing concentrations of the compound tested. We did triplicate SPR assays for each concentration.

[3] = molecular target: T2, human IRS1 PH domain (Homo sapiens, UniProt P35568); test: SPR direct binding to IRS1 PH domain; details: for Kd: read-out: KD IRS1; for Exp. ΔGbind: IRS1, derived from experimental KD
T2 sequence (P35568 12-115 limits assumed): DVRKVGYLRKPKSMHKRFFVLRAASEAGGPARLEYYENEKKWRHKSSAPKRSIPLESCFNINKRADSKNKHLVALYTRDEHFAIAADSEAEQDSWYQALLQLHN
Description: as §3

[4] = system: T47D; test: Cellular proliferation (MTT) assay, T47D; assay type: cell-based, human; details: for IC50: 4 days growth, MTT, IA = Inactive; for toxicity to T47D at 100 µM: data not shown
Description: (§1) T47D and MDA-MB-231 cells were maintained in bulk culture in Dulbecco's modified Eagle medium (DMEM) supplemented with 10% heat-inactivated fetal bovine serum (FBS), 4.5 g/L glucose, 100 U/mL penicillin and […] streptomycin in a 5% CO2 atmosphere. MCF-10A cells were maintained in MEGM with other conditions same as the cancer cell lines. […] Cells were confirmed to be mycoplasma free by testing them with an ELISA kit (Roche-Boehringer Mannheim, Indianapolis, IN). Our hit compounds were freshly prepared in DMSO at a stock concentration of 10 mM. For the evaluation of cellular proliferation, a standard 96-well micro-cytotoxicity assay was performed as described in reference. Briefly, the assay was set up by plating cells at 5,000–10,000 cells per well (depending on cell doubling time) for a growth period of 4 days. The identified hits were added directly to the media, dissolved in DMSO at various concentrations ranging from 1 to 200 µM. The endpoint was spectrophotometric determination of the reduction of 3-(4,5-dimethylthiazol-2-yl)-2,5-diphenyltetrazolium bromide. All assays were performed in triplicates.

[5] = molecular target: T1, human GAB1 PH domain; test: SPR competitive binding (PtdIns(3,4,5)P3-biotin liposomes), Ki, GAB1 PH domain; details: read-out: Ki GAB1, cells marked * (Ki measurement)
Description: as §3

[6] = system: MDA-MB-231; test: Cellular proliferation (MTT) assay, MDA-MB-231; assay type: cell-based, human; details: for IC50: 4 days growth, MTT, IA = Inactive; for toxicity to MDA-MB-231 at 100 µM: data not shown
Description: as §1

[7] = system: MCF-10A; test: Cellular proliferation assay, MCF-10A non-tumorigenic cells; assay type: cell-based, human; details: data not shown
Description: (§2) Two human breast cancer cell lines and one normal breast cell line were used for this study: T47D ductal breast epithelial tumor cell line, MDA-MB-231 epithelial tumor cell line and MCF-10A non-tumorigenic epithelial cell line (American Type Culture Collection, Rockville, MD). T47D and MDA-MB-231 cells were maintained in bulk culture in Dulbecco's modified Eagle medium (DMEM) supplemented with 10% heat-inactivated fetal bovine serum (FBS), 4.5 g/L glucose, 100 U/mL penicillin and […] streptomycin in a 5% CO2 atmosphere. MCF-10A cells were maintained in MEGM with other conditions same as the cancer cell lines. Cells were passaged using 0.25% trypsin and 0.02% EDTA. Cells were confirmed to be mycoplasma free by testing them with an ELISA kit (Roche-Boehringer Mannheim, Indianapolis, IN). Our hit compounds were freshly prepared in DMSO at a stock concentration of 10 mM. For the evaluation of cellular proliferation, a standard 96-well micro-cytotoxicity assay was performed as described in reference. Briefly, the assay was set up by plating cells at 5,000–10,000 cells per well (depending on cell doubling time) for a growth period of 4 days. The identified hits were added directly to the media, dissolved in DMSO at various concentrations ranging from 1 to 200 µM. […]

[8] = system: MDA-MB-468 cell line; test: Cellular proliferation assay, MDA-MB-468; assay type: cell-based; details: cell marked ** in MDA-MB-231 column: MDA-MB-468 cell line used
Description: as §2

[9] = molecular target: GAB2 PH domain (Homo sapiens, UniProt Q9UQC2); test: Follow-up binding to GAB2 PH domain; details: follow-up experiments
Sequence of GAB2 PH domain (Q9UQC2 6-117 limits assumed): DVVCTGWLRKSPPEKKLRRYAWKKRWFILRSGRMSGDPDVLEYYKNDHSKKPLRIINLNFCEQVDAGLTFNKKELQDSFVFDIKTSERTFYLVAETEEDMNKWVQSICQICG

[10] = SPR, immobilized PH domain GST-fusion, NB = No Binding

| Structure (SMILES) | % pGAB1 inhibition [1] [%] | Kd [2] [µM] | Kd [3, 10] [µM] | IC50 [4] [µM] | IC50 [6] [µM] | other results |
| --- | --- | --- | --- | --- | --- | --- |
| CCCCCCCCCCCCCCCCCCOC[C@H](COP(=O)(O)OC1C(O)[C@@H](O)C(O)C[C@H]1O)OC (stereo partly shown) [DPIEL, reference compound] | 72 | 2.8 |  |  |  |  |
| O=S(=O)(NCc1csc2ccc(Cl)cc12)c1cc(S(=O)(=O)c2ccccc2)cs1 [GAB-001] | 55 |  | > 50 | 23.7 ± 2.7 | 40.3 ± 1.3 | KD IRS1 [3, 10]: not to IRS1 PH domain; Ki [5]: 9.4 µM and 9.38 µM; Exp. ΔGbind [2]: -6.91 kcal/mol |
| Cn1cnc(S(=O)(=O)Nc2ccccc2SCCS(=O)(=O)c2ccc(Cl)cc2)c1 [GAB-002] | 32 | 2.1 ± 0.1 | 16.4 ± 4.3 | 138 ± 6.9 | 143 ± 11.6 |  |
| O=c1[nH]nc(SCc2csc(-c3ccccc3)n2)n1Cc1ccco1 [GAB-004] | 81 | 2.2 ± 1.1 | > 50 | 19.4 ± 2.9 | 66.6 ± 4.6 | Exp. ΔGbind [2]: -7.78 kcal/mol |
| CS(=O)(=NS(=O)(=O)c1ccc(-c2ccccn2)s1)c1ccc(Cl)cc1 (stereo not shown) [GAB-005] | 6 | > 50 | > 50 | > 200 | > 200 |  |
| Cc1cc2ncc(-c3cnc(SCCS(=O)(=O)c4ccc(Cl)cc4)nc3)c(C)n2n1 [GAB-006] | 16 | > 50 | > 50 | 101 ± 1.8 |  |  |
| CS(=O)(=O)CCSc1ncccc1C(=O)Sc1ccc(Cl)cc1Cl [GAB-007] | 53 | 42.3 ± 8.9 | 1.6 ± 0.2 | 20.1 ± 4.3 | 4.6 ± 0.7 | Exp. ΔGbind [3]: -7.93 kcal/mol; Exp. ΔGbind [2]: -6.01 kcal/mol |
| O=S(=O)(NCc1csc(-c2cccs2)n1)c1ccc(N2CCOCC2)nc1 [GAB-008] | 8 | > 50 | 16.2 ± 1.7 | 43.2 ± 3.2 | > 200 |  |
| Cc1noc(C)c1NC(=O)NCc1csc(-c2cccs2)n1 [GAB-009] | 38 | > 50 | > 50 | 97.6 ± 6.1 | 163 ± 6 |  |
| Cc1onc(-c2ccccc2)c1-c1nc(CSc2nc3ccccc3[nH]2)no1 [GAB-010] | 92 | > 50 | 0.12 ± 0.02 | 23.8 ± 4.2 | 66 ± 4.4 | Exp. ΔGbind [3]: -9.51 kcal/mol |
| Cn1c(Cc2ccsc2)nnc1SCC(=O)Nc1cc(Cl)cc(Cl)c1 [GAB-011] | 24 | > 50 | > 50 | > 200 | > 200 |  |
| O=C(O)c1ccccc1C(=O)Nc1ccccc1SCCS(=O)(=O)c1ccc(Cl)cc1 [GAB-012] | 43 | > 50 | > 50 | 119 ± 3.6 | > 200 | killing of T47D cells at 50 µM [4]: did not effectively kill; toxicity to T47D at 100 µM [4]: not for T47D and MDA-MB-231; toxicity to MCF-10A at 100 µM [7]: toxic; killing of MDA-MB-231 cells at 50 µM [6]: did not effectively kill; toxicity to MDA-MB-231 at 100 µM [6]: not for T47D and MDA-MB-231 |
| COc1cc(NS(=O)(=O)c2ccc(NS(=O)(=O)c3c(C)noc3C)cc2)nc(OC)n1 [GAB-013] | 27 | > 50 | > 50 | > 200 | > 200 | killing of T47D cells at 50 µM [4]: did not effectively kill; toxicity to T47D at 100 µM [4]: not for T47D and MDA-MB-231; toxicity to MCF-10A at 100 µM [7]: toxic; killing of MDA-MB-231 cells at 50 µM [6]: did not effectively kill; toxicity to MDA-MB-231 at 100 µM [6]: not for T47D and MDA-MB-231 |
| Cc1nnc(NS(=O)(=O)c2ccc(NS(=O)(=O)c3ccc4ccccc4c3)cc2)s1 [GAB-014] | 42 | > 50 | > 50 | 178 ± 3.9 |  | IC50 [8]: 69.9 ± 0.1 µM |
| CCCCCCCCCCCCc1ccc(S(=O)(=O)Nc2nnc(CC(=O)O)s2)cc1 [GAB-015] | 77 |  | 0.05 | 125 ± 5.4 |  | Ki [5]: 13.1 ± 1.5 µM |
| CCCCCCCCCCCCc1ccc(S(=O)(=O)Nc2nnc(CC(=O)OCC)s2)cc1 [GAB-016] |  | 0.9 ± 0.1 | 0.15 |  |  | Exp. ΔGbind [3]: -9.38 kcal/mol; targeting of GAB2 PH domain [9]: targets GAB2 PH domain as well; Exp. ΔGbind [2]: -8.31 kcal/mol; KD GAB1 [2]: nanomolar binding affinity |
| CCCCCCCCCCCCc1ccc(S(=O)(=O)Nc2nnc(C(=O)OCC)s2)cc1 [GAB-017] |  | 0.68 ± 0.03 | 0.05 |  |  | Exp. ΔGbind [2]: -8.47 kcal/mol; KD GAB1 [2]: nanomolar binding affinity |
| CCCCCCCCCCCCc1ccc(S(=O)(=O)Nc2nnc(S(N)(=O)=O)s2)cc1 [GAB-018] | 71 |  | > 50 | 185 ± 2.5 |  | killing of T47D cells at 50 µM [4]: did not effectively kill; Ki [5]: 36.6 ± 5 µM; killing of MDA-MB-231 cells at 50 µM [6]: did not effectively kill |
| CCc1ccc(C(=O)OC)cc1CSc1nnc(-c2ccc(C(F)(F)F)cc2)n1Cc1ccoc1 [GAB-019] | 91 |  |  | 39.4 ± 6.2 |  |  |
| CCCCCCCCCCCCc1ccc(S(=O)(=O)Nc2nncs2)cc1 [GAB-020] | 87 | 1.33 |  |  |  |  |
